Results as given in patent US20240190887A1, “COMPOUND USED AS SHP2 INHIBITOR AND USE THEREOF” (TYK MEDICINES, INC., priority 2021, published 2024).

How the values were obtained:
MV4-11 cells = assay: Compound activity in MV4-11 cells (72 hr, cell viability by CTG method); format: cell-based; conditions: Homo sapiens, 72 hr incubation
Experimental: MV4-11 cells in logarithmic growth phase were taken, prepared into cell suspension, inoculated in 96-well plates at 160 uL/well with an inoculation density of 5000 cells/well, and cultured overnight in a 37° C. cell culture incubator. A 5× solution of the compound to be tested was prepared with 4-fold gradient dilution, and a total of 8 concentrations with double duplicate wells. The solution of the compound to be tested was added into 96-well plate at 40 uL/well, and the blank and control wells were added with corresponding volume of solvent, shaken and mixed well, and then incubated in 37° C. cell incubator for 72 hr, and the cell viability was detected by CTG method.
Equation (Sample−blank)/(control−blank)*100% was used to convert raw data to inhibition rate, and the IC50 value could be obtained by curve fitting with four parameters (obtained with “log(inhibitor) vs. response—Variable slope” model in GraphPad Prism), and the results are shown in Table III. (In the table below, the following designations are used: <100 nM=A; 100-500 nM=B; >500 nM=C).

full-length SHP2 protein = molecular target: T1, full-length SHP2 protein (Homo sapiens, UniProt Q06124); assay: In vitro SHP2 enzyme activity inhibition (DiFMUP substrate, SHP2 activating peptide); format: biochemical; conditions: full-length SHP2 protein with activating peptide, 8 concentrations, read-out: IC50 of compounds inhibiting SHP2 enzyme activity
T1 construct: Purified full-length SHP2 protein (Kamed Bio-Tianjin); purchased Kamed Bio-Tianjin
T1 sequence (Q06124 1-593): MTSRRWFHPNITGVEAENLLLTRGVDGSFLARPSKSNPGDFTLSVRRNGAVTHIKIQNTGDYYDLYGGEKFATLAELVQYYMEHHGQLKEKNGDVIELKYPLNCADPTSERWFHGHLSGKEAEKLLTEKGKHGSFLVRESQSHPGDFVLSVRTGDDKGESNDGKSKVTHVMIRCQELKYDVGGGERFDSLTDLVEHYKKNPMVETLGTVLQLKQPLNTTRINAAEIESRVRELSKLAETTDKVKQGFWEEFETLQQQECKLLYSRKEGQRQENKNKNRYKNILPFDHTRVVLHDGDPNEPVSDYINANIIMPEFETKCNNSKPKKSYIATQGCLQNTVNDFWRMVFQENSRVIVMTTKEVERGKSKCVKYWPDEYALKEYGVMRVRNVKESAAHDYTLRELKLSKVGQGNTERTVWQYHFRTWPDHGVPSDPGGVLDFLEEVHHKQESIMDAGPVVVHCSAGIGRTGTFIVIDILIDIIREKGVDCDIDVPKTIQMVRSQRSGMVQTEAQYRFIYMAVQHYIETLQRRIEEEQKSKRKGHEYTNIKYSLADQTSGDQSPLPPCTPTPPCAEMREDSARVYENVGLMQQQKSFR
Experimental: • a) Purified full-length SHP2 protein (Kamed Bio-Tianjin) • b) SHP2 activating peptide (BPS Bioscience). • c) DiFMUP. • d) Reaction buffer (120 mM HEPES pH 7.2, 200 mM NaCl, 1 mM EDTA, 0.002% Brij35), added with 0.04% BSA after autoclave, stored at 4° C.; diluted to 1× before use, and added with 2 mM DTT.
• a) The 384-well plates were filled with 10 uL solution of compound to be tested (No. 2), 3-fold gradient dilution, totaling 8 concentrations; • b) The sample wells to be tested were added with 5 uL of […] activating peptide (No. 4, 2 uM) and 5 uL of 4×full-length SHP2 protein (0.88 nM), control wells were free of inhibitor, and blank wells were free of SHP2 activating peptide and inhibitor; • c) 384-well plate was sealed, mixed well and incubated at room temperature for 1 hr; • d) After adding 5 uL 5×DiFMUP (125 uM), 384-well plate was sealed, mixed well and incubated at room temperature for 1 hr, and then detected by En Vision;
% Inhibition=[1−(RFUsample−RFUblank)/(RFUtotal−RFUblank)]×100
Non-linear regression analysis was performed using Graphpad 8.0, and the IC50 values for each compound were obtained by fitting a curve of enzyme activity with compound concentration through the equation Y=Bottom+(Top−Bottom)/(1+10^((LogIC50−X)*Hill Slope)).

Row | Compound | IC50 (MV4-11 cells) [nM] | IC50 (full-length SHP2 protein) [nM]
1 | C[C@@H]1OCC2(CCN(c3nc4cnn(-c5ccc6cnn(C)c6c5)c4nc3CO)CC2)[C@@H]1N [Compound C4] | < 100 | < 50
2 | C[C@@H]1OCC2(CCN(c3nc4cnn(-c5cccc6c5ccn6C)c4nc3CO)CC2)[C@@H]1N [Compound C5] | < 100 | < 50
3 | C[C@@H]1OCC2(CCN(c3nc4cnn(-c5ccc6nn(C)cc6c5Cl)c4nc3CO)CC2)[C@@H]1N [Compound C6] | < 100 | < 50
4 | C[C@@H]1OCC2(CCN(c3nc4cnn(-c5ccc6c(cnn6C)c5)c4nc3CO)CC2)[C@@H]1N [Compound C11] | < 100 | < 50
5 | C[C@@H]1OCC2(CCN(c3nc4cnn(-c5ccc6ccn(C)c6c5)c4nc3CO)CC2)[C@@H]1N [Compound C12] | < 100 | < 50
6 | C[C@@H]1OCC2(CCN(c3nc4cnn(-c5cccc6c5CCN6C)c4nc3CO)CC2)[C@@H]1N [Compound C13] |  | < 50
7 | C[C@@H]1OCC2(CCN(c3nc4cnn(-c5ccc6cn(C)nc6c5)c4nc3CO)CC2)[C@@H]1N [Compound C14] |  | < 50
8 | C[C@@H]1OCC2(CCN(c3nc4cnn(-c5ccc6cn[nH]c6c5)c4nc3CO)CC2)[C@@H]1N [Compound C15] | < 100 | < 50
9 | C[C@@H]1OCC2(CCN(c3nc4cnn(-c5ccc6cnn(C)c6c5)c4nc3C(F)F)CC2)[C@@H]1N [Compound C16] |  | < 50
10 | C[C@@H]1OCC2(CCN(c3nc4cnn(-c5ccc6nnn(C)c6c5)c4nc3CO)CC2)[C@@H]1N [Compound C17] | < 100 | < 50
11 | CCn1ncc2ccc(-n3ncc4nc(N5CCC6(CC5)CO[C@@H](C)[C@H]6N)c(CO)nc43)cc21 [Compound C18] |  | < 50
12 | Cc1nc(N2CCC3(CC2)CO[C@@H](C)[C@H]3N)c(CO)nc1Sc1ccnc(N)c1Cl [RMC-4630, reference compound] | < 100 | < 50
13 | C[C@@H]1OCC2(CCN(c3nc4cnn(-c5ccnc(N)c5Cl)c4nc3CO)CC2)[C@@H]1N [WO2021148010A1 Example 5, reference compound] | 100 to 500 | 50 to 500
